Patent publication US11091447B2, “UBE2K modulators and methods for their use” (Berg LLC, priority 2020, dated 2021)

Experiments:
[1] = system: MV.4.11 cell (B myelomonocytic leukemia) line derived xenograft; assay: Anti-tumor efficacy in MV.4.11 cell line derived xenograft model; type: in vivo; conditions: MV.4.11 xenograft, nude mice
Protocol: Nude mice were implanted with 5×10^6 cells MV.4.11 cells subcutaneously in the right flank region. Mice were randomized into 3 groups (8 mice each) on day 12 post cells implantation. Vehicle control was administered with formulation of test compound and treatment group was administered with compound 131 at doses 75 and 150 mg/kg orally as a suspension in 0.1% Tween-80+0.5% CMC (carboxymethyl cellulose) twice daily (b.i.d) for 24 days. Tumor measurements and body weight were recorded thrice weekly during the study period till study completion (day 24).

[2] = system: MIA PaCa-2 cells; assay: Cellular viability assay (Cell Titer Fluor); type: cell-based; conditions: Homo sapiens, MIA PaCa-2, 72 h, 72 hours incubation
Protocol: Cell viability were performed using the Cell Titer Fluor™ Assays (Promega G6080). MIA PaCa-2 cells are grown in DMEM media with 10% FBS, 1% Pen/Strep/Amphotericin B. Cells are trypsinized and counted using the Nexcelom cellometer. 5,000 cells/100 μl are plated per well in Greiner black/clear 96-well plates. Cells should be within 10 passages of stock vial for use in workflow. Three distinct lineages of these cells are cultured in parallel for multiple passages and 5 full plates of each lineage are seeded for one run. Small molecule compounds are provided as 100 mM stock solutions in DMSO. Dilution series plates are prepared using 1:3 dilution to achieve a 7 point concentration on a half log scale. After addition of compounds, cells are incubated 37° C., 5% CO2 for 72 hours.
For each test compound condition, triplicate technical replicates are used. For each reference compound, duplicate technical replicates are used. At the end of the 72-hour incubation, spent media is discarded. Then, 100 μl of GF-AFC diluted in DMEM (serum and phenol red-free) is added at 1:2000 concentration (5 μl/10 ml). Cells are incubated with reaction buffer for 1 h at 37° C. Fluorescence is then read on the plate reader with excitation wavelength of 390 nm and emission wavelength of 505 nm. All raw data are analyzed on Microsoft Excel 2010 and normalized to the DMSO vehicle control. Relative results are copied into GraphPad Prism for non-linear regression analysis and determination of IC50 and other dose curve parameters (min, max, Hill slope, etc.) using the log (inhibitor) vs. response equation. Values are as follows: A represents an IC50 of <[…], B represents an IC50 of 1 mM to 10 mM, C represents an IC50 of >10 mM.

[3] = system: K-562 tumor grafts; assay: Tumor growth inhibition in K-562 murine xenograft model; type: in vivo, Mouse (Mus musculus); conditions: bid., p.o., K-562 xenograft, SCID Bg mice
Protocol: K-562 cancer cell line sourced from American Type Culture Collection (ATCC), USA. Cells were grown in IMDM medium (Sigma, Cat #30-2005) supplemented with 10% FBS (Invitrogen, Cat #10438-026), and 1% penicillin streptomycin (Invitrogen, Cat #15140-122). To establish xenograft, the cells were harvested by trypsinization when they reach around 70 to 80% confluence and 5 million K-562 cells were suspended in 200 μL of serum-free medium and mixed at 1:1 ratio with matrigel before implanting subcutaneously into the dorsal right flank of SCID Bg mice using a 1 mL BD syringe attached to a 24-gauge needle.
K-562 tumor grafts were measured after 10 days of cell inoculation once they became palpable. When the average tumor volume reached around 85 mm^3, animals were dosed after randomization into different treatment groups keeping tumor volume and number of animals in such a way so that the average tumor volume of each group remained same across the groups.
Compounds were formulated in 0.5% CMC+0.1% Tween 80 and given for 12 consecutive days BID with 8 hour gaps.

SMILES	tumor growth inhibition ([1]; 75 mg/kg orally twice daily (b.i.d) for 24 days) [%]	tumor growth inhibition ([1]; 150 mg/kg orally twice daily (b.i.d) for 24 days) [%]	IC50 [2] [nM]	% Tumor Growth Inhibition (TGI) on day 3 ([3]; 25 mg/kg/dose) [%]	% Tumor Growth Inhibition (TGI) on day 5 ([3]; 25 mg/kg/dose) [%]	% Tumor Growth Inhibition (TGI) on day 8 ([3]; 25 mg/kg/dose) [%]	% Tumor Growth Inhibition (TGI) on day 10 ([3]; 25 mg/kg/dose) [%]	% Tumor Growth Inhibition (TGI) on day 12 ([3]; 25 mg/kg/dose) [%]	% Tumor Growth Inhibition (TGI) on day 3 ([3]; 75 mg/kg/dose) [%]	% Tumor Growth Inhibition (TGI) on day 5 ([3]; 75 mg/kg/dose) [%]	% Tumor Growth Inhibition (TGI) on day 8 ([3]; 75 mg/kg/dose) [%]	% Tumor Growth Inhibition (TGI) on day 10 ([3]; 75 mg/kg/dose) [%]	% Tumor Growth Inhibition (TGI) on day 12 ([3]; 75 mg/kg/dose) [%]
COc1ccc(F)cc1-c1nc(CNC(=O)c2cccc3c2OC(F)(F)O3)n[nH]1 [Compound 131]	73.6	86.3	< 1000										
COc1ccc(F)cc1-c1nc(CNC(=O)c2cc(F)ccc2OC(F)(F)F)n[nH]1 [Compound 133]			< 1000	43	37	48	45	43	47	56	61	60	64
